Source: patent US12091425B2 (AMGEN INC., priority 2016, dated 2024)

Assays:
[1] = target: T1, Mcl-1/Bim interaction, recombinant human Mcl-1 (171-327) (Homo sapiens, UniProt Q07820); assay: Cell free Mcl-1: Bim Affinity Assay (Mcl-1 HTRF); assay type: binding; settings: TR-FRET, 0.1 nM Mcl-1 (171-327), 0.05 nM biotin-Bim (51-76)
T1 construct: made in house
How it was run: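 Compounds were mixed with the protein and a biotinylated Bim peptide spanning human residues 51-76. Plates were left overnight, then TR-FRET signal was measured. A four-parameter sigmoidal model applied to duplicate competition data gave IC50.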

[2] = tested on: OPM-2 human multiple myeloma cell line; assay: Cell Viability Assay (OPM-2 10 FBS); assay type: cell-based; settings: Homo sapiens, OPM-2, 16 h, OPM-2 cells, 16 h, CellTiter-Glo
How it was run: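 ATP-based luminescence (CellTiter-Glo) measured after a 16 h compound treatment of OPM-2 cells seeded at 3000 cells/well in 10% FBS medium. IC50 values derived by 4-parameter logistic fitting of serial dilutions.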

T1 sequence (Q07820 171-327): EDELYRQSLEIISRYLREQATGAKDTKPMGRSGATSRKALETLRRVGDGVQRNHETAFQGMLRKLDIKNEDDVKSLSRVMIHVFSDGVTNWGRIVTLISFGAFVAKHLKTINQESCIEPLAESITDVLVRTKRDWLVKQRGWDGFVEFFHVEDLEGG

Structure (SMILES) | IC50 [1] | IC50 [2]
CN(C)C(=O)CCO[C@@H]1/C=C/CCCS(=O)(=O)NC(=O)c2ccc3c(c2)N(C[C@@H]2CC[C@H]21)C[C@@]1(CCCc2cc(Cl)ccc21)CO3 [Example 211, 3-(((1S,3′R,6′R,7′R,8′E)-6-chloro-13′,13′-dioxido-15′-oxo-3,4-dihydro-2H-spiro[naphthalene-1,22′-[20]oxa[13]thia[1,14]diazatetracyclo[14.7.2.0^3,6.0^19,24]pentacosa [8,16,18,24]tetraen]-7′-yl)oxy)-N,N-dimethylpropanamide] | 1.11 nM | 2370 nM
CN(C)CCNC(=O)CO[C@@H]1/C=C/CCCS(=O)(=O)NC(=O)c2ccc3c(c2)N(C[C@@H]2CC[C@H]21)C[C@@]1(CCCc2cc(Cl)ccc21)CO3 [Example 212, 2-(((1S,3′R,6′R,7′R,8′E)-6-chloro-13′,13′-dioxido-15′-oxo-3,4-dihydro-2H-spiro[naphthalene-1,22′-[20]oxa[13]thia[1,14]diazatetracyclo[14.7.2.0^3,6.0^19,24]pentacosa [8,16,18,24]tetraen]-7′-yl)oxy)-N-(2-(dimethylamino)ethyl)acetamide] | 2.96 nM | 18200 nM
O=C1NS(=O)(=O)CCC/C=C/[C@@H](OCCN2CCOCC2)[C@@H]2CC[C@H]2CN2C[C@@]3(CCCc4cc(Cl)ccc43)COc3ccc1cc32 [Example 213, (1S,3′R,6′R,7′R,8′E)-6-chloro-7′-(2-(4-morpholinyl)ethoxy)-3,4-dihydro-2H,15′H-spiro[naphthalene-1,22′-[20]oxa[13]thia[1,14]diazatetracyclo[14.7.2.0^3,6.0^19,24]pentacosa [8,16,18,24]tetraen]-15′-one 13′,13′-dioxide] | 1.08 nM | 835 nM
Cc1noc(C)c1CO[C@@H]1/C=C/CCCS(=O)(=O)NC(=O)c2ccc3c(c2)N(C[C@@H]2CC[C@H]21)C[C@@]1(CCCc2cc(Cl)ccc21)CO3 [Example 214, (1S,3′R,6′R,7′R,8′E)-6-chloro-7′-((3,5-dimethyl-4-isoxazolyl)methoxy)-3,4-dihydro-2H,15′H-spiro[naphthalene-1,22′-[20]oxa[13]thia[1,14]diazatetracyclo[14.7.2.0^3,6.0^19,24]pentacosa [8,16,18,24]tetraen]-15′-one 13′,13′-dioxide] | 12.3 nM | 2280 nM
Cn1cnc(CO[C@@H]2/C=C/CCCS(=O)(=O)NC(=O)c3ccc4c(c3)N(C[C@@H]3CC[C@H]32)C[C@@]2(CCCc3cc(Cl)ccc32)CO4)n1 [Example 215, (1S,3′R,6′R,7′R,8′E)-6-chloro-7′-((1-methyl-1H-1,2,4-triazol-3-yl)methoxy)-3,4-dihydro-2H,15′H-spiro[naphthalene-1,22′-[20]oxa[13]thia[1,14]diazatetracyclo[14.7.2.0^3,6.0^19,24]pentacosa [8,16,18,24]tetraen]-15′-one 13′,13′-dioxide] | 1.32 nM | 8740 nM
O=C1NS(=O)(=O)CCC/C=C/[C@@H](OCc2nccs2)[C@@H]2CC[C@H]2CN2C[C@@]3(CCCc4cc(Cl)ccc43)COc3ccc1cc32 [Example 216, (1S,3′R,6′R,7′R,8′E)-6-chloro-7′-(1,3-thiazol-2-ylmethoxy)-3,4-dihydro-2H,15′H-spiro[naphthalene-1,22′-[20]oxa[13]thia[1,14]diazatetracyclo[14.7.2.0^3,6.0^19,24]pentacosa [8,16,18,24]tetraen]-15′-one 13′,13′-dioxide] | 9.77 nM | 26200 nM
CCOC(=O)CO[C@@H]1/C=C/CCCS(=O)(=O)NC(=O)c2ccc3c(c2)N(C[C@@H]2CC[C@H]21)C[C@@]1(CCCc2cc(Cl)ccc21)CO3 [Example 217, ethyl(((1S,3′R,6′R,7′R,8′E)-6-chloro-13′,13′-dioxido-15′-oxo-3,4-dihydro-2H-spiro[naphthalene-1,22′-[20]oxa[13]thia[1,14]diazatetracyclo[14.7.2.0^3,6.0^19,24]pentacosa [8,16,18,24]tetraen]-7′-yl)oxy)acetate] | 3.81 nM | 2660 nM
O=C(O)CO[C@@H]1/C=C/CCCS(=O)(=O)NC(=O)c2ccc3c(c2)N(C[C@@H]2CC[C@H]21)C[C@@]1(CCCc2cc(Cl)ccc21)CO3 [Example 218, (((1S,3′R,6′R,7′R,8′E)-6-chloro-13′,13′-dioxido-15′-oxo-3,4-dihydro-2H-spiro[naphthalene-1,22′-[20]oxa[13]thia[1,14]diazatetracyclo[14.7.2.0^3,6.0^19,24]pentacosa [8,16,18,24]tetraen]-7′-yl)oxy)acetic acid] | 0.216 nM | 3670 nM
CN(C)S(=O)(=O)CCO[C@@H]1/C=C/CCCS(=O)(=O)NC(=O)c2ccc3c(c2)N(C[C@@H]2CC[C@H]21)C[C@@]1(CCCc2cc(Cl)ccc21)CO3 [Example 219, 2-(((1S,3′R,6′R,7′R,8′E)-6-chloro-13′,13′-dioxido-15′-oxo-3,4-dihydro-2H-spiro[naphthalene-1,22′-[20]oxa[13]thia[1,14]diazatetracyclo[14.7.2.0^3,6.0^19,24]pentacosa [8,16,18,24]tetraen]-7′-yl)oxy)-N,N-dimethylethanesulfonamide] | 2.4 nM | 1830 nM
O=C1NS(=O)(=O)CCC/C=C/[C@@H](OCCO)[C@@H]2CC[C@H]2CN2C[C@@]3(CCCc4cc(Cl)ccc43)COc3ccc1cc32 [Example 220, (1S,3′R,6′R,7′R,8′E)-6-chloro-7′-(2-hydroxyethoxy)-3,4-dihydro-2H,15′H-spiro[naphthalene-1,22′-[20]oxa[13]thia[1,14]diazatetracyclo[14.7.2.0^3,6.0^19,24]pentacosa [8,16,18,24]tetraen]-15′-one 13′,13′-dioxide] | 1.99 nM | 2660 nM
O=C1NS(=O)(=O)CCCC[C@@H](O)[C@@H]2CC[C@H]2CN2C[C@@]3(CCCc4cc(Cl)ccc43)COc3ccc1cc32 [Example 222, (1S,3′R,6′R,7′R)-6-chloro-7′-hydroxy-3,4-dihydro-2H,14′H-spiro[naphthalene-1,21′-[19]oxa[12]thia[1,13]diazatetracyclo[13.7.2.0^3,6.0^18,23]tetracosa [15,17,23]trien]-14′-one 12′,12′-dioxide] | 9.08 nM | 30800 nM
O=C1NS(=O)(=O)CCCCCC[C@@H](O)[C@@H]2CC[C@H]2CN2C[C@@]3(CCCc4cc(Cl)ccc43)COc3ccc1cc32 [Example 228, (1S,3′R,6′R,7′R)-6-chloro-7′-hydroxy-3,4-dihydro-2H,16′H-spiro[naphthalene-1,23′-[21]oxa[14]thia[1,15]diazatetracyclo[15.7.2.0^3,6.0^20,25]hexacosa[17,19,25]trien]-16′-one 14′,14′-dioxide] | 13.1 nM | 23100 nM
CO[C@@H]1/C=C/CCCCS(=O)(=O)NC(=O)c2ccc3c(c2)N(C[C@@H]2CC[C@H]21)C[C@@]1(CCCc2cc(Cl)ccc21)CO3 [Example 229, (1S,3′R,6′R,7′R,8′E)-6-chloro-7′-methoxy-3,4-dihydro-2H,16′H-spiro[naphthalene-1,23′-[21]oxa[14]thia[1,15]diazatetracyclo[15.7.2.0^3,6.0^20,25]hexacosa[8,17,19,25]tetraen]-16′-one 14′,14′-dioxide] | 1.62 nM | 1720 nM
C[C@@H]1[C@@H](C)C/C=C/[C@H](OCC(=O)O)[C@@H]2CC[C@H]2CN2C[C@@]3(CCCc4cc(Cl)ccc43)COc3ccc(cc32)C(=O)NS1(=O)=O [Example 292, (((1S,3′R,6′R,7′S,8′E,11′S,12′R)-6-chloro-11′,12′-dimethyl-13′,13′-dioxido-15′-oxo-3,4-dihydro-2H-spiro[naphthalene-1,22′-[20]oxa[13]thia[1,14]diazatetracyclo[14.7.2.0^3,6.0^19,24]pentacosa [8,16,18,24]tetraen]-7′-yl)oxy)acetic acid] | 0.0929 nM | 1110 nM
C[C@@H]1[C@@H](C)C/C=C/[C@H](OCC(=O)O)[C@@H]2CC[C@H]2CN2C[C@@]3(CCCc4cc(Cl)ccc43)COc3cc(CC(=O)O)c(cc32)C(=O)NS1(=O)=O [Example 293, ((1S,3′R,6′R,7′S,8′E,11′S,12′R)-7′-(carboxymethoxy)-6-chloro-11′,12′-dimethyl-13′,13′-dioxido-15′-oxo-3,4-dihydro-2H-spiro[naphthalene-1,22′-[20]oxa[13]thia[1,14]diazatetracyclo[14.7.2.0^3,6.0^19,24]pentacosa [8,16,18,24]tetraen]-17′-yl)acetic acid] | 0.36 nM | 27600 nM
CNC(=O)CO[C@H]1/C=C/C[C@H](C)[C@@H](C)S(=O)(=O)NC(=O)c2ccc3c(c2)N(C[C@@H]2CC[C@H]21)C[C@@]1(CCCc2cc(Cl)ccc21)CO3 [Example 294, 2-(((1S,3′R,6′R,7′S,8′E,11′S,12′R)-6-chloro-11′,12′-dimethyl-13′,13′-dioxido-15′-oxo-3,4-dihydro-2H-spiro[naphthalene-1,22′-[20]oxa[13]thia[1,14]diazatetracyclo[14.7.2.0^3,6.0^19,24]pentacosa [8,16,18,24]tetraen]-7′-yl)oxy)-N-methylacetamide] | 0.255 nM | 410 nM
C[C@@H]1[C@@H](C)C/C=C/[C@H](OCC(=O)N(C)C)[C@@H]2CC[C@H]2CN2C[C@@]3(CCCc4cc(Cl)ccc43)COc3ccc(cc32)C(=O)NS1(=O)=O [Example 295, 2-(((1S,3′R,6′R,7′S,8′E,11′S,12′R)-6-chloro-11′,12′-dimethyl-13′,13′-dioxido-15′-oxo-3,4-dihydro-2H-spiro[naphthalene-1,22′-[20]oxa[13]thia[1,14]diazatetracyclo[14.7.2.0^3,6.0^19,24]pentacosa [8,16,18,24]tetraen]-7′-yl)oxy)-N,N-dimethylacetamide] | 0.19 nM | 151 nM
